Measurements as given in patent publication US10689423B2, “CTLA4-binding protein peptide-linker masks” (City of Hope, priority 2015, dated 2020).
Bridge positions count the residues as written; N and C are the ends. Peptide text beside a SMILES is read from it.

Assays:
[1] = most common major toxicity; cited from earlier work
Lcn2-Fc = test: Phage competition ELISA of surface-bound peptides on immobilized Lcn2-Fc; format: binding; conditions: compared to Lcn2-Fc pre-complexed with CTLA4-Fc or PBS control
Description: FIGS. 2A and 2B: Identification and characterization of a peptide (CTLA-4 binding domain masking peptide) blocking binding of mLcn2 (CTLA-4 binding domain) to CTLA-4. […] FIG. 2B is a graph showing surface plasmon resonance traces of analyte mLcn2-Fc flowed over ligand Peptide 16 immobilized to a CM5 chip.
FIG. 10B: ELISA results of bacteriophage library after three rounds of enrichment. Wells in a 96-well plate were immobilized with mLcn2-Fc (left column), mLcn2-Fc pre-complexed with CTLA-4-Fc (middle column), or PBS (right column). Each condition was performed in triplicate.
FIGS. 12A-12D: 18 min substrate incubation. […] FIG. 12A is a graph showing Clone 1—YGLGFNF (SEQ ID NO:52); FIG. 12B is a graph showing Clone 2—RIDETLQ (SEQ ID NO:53); FIG. 12C is a graph showing Clone 3—FTPWPEA (SEQ ID NO:54); and FIG. 12D is a graph showing Clone 4—WPEWDLW (SEQ ID NO:55).
FIGS. 13A-13D: 18 min substrate incubation. […] FIG. 13A is a graph showing clone 6—EKWFRFM (SEQ ID NO:56); FIG. 13B is a graph showing clone 8—YLELMHS (SEQ ID NO:57); FIG. 13C is a graph showing clone 12—SVLPPFM (SEQ ID NO:58); FIG. 13D is a graph showing clone 16—WSPLPFM (SEQ ID NO:59).
(§1) The sequence of mLcn2 was obtained from the PDB, synthesized and produced in bacteria. Peptides that specifically bind to mLcn2 were identified using a cyclic 7-mer library. Positive leads were identified and sequencing of these hits indicated an overall pattern in the sequences. To further characterize the lead peptides and to ensure the peptides bound to the same site as CTLA, a competition ELISA was performed using all leads (FIG. 2A). Based on this analysis, two cyclic peptides were chosen, chemically synthesized, and characterized by SPR (FIG. 2B) and crystallography. Well diffracting crystals were obtained for both complexes (1.95 and 2.15 Å) and refined (R/Rfree of 18.0/22.5% and 16.5/18.5% and no Ramachandran outliers). […] Design of the linker was aided by examination of the crystal structure of lipocalin.

mLcn2 = target: T1, mLcn2 (Homo sapiens, UniProt P80188, A60R/C107S/D67H/D97E/E64D/F91S/G122D/H138Y/K145L/K154A/K66Q/K70N/K93H/L123K/L157I/L90I/M140V/N134D/P121G/Q148D/Q48H/Q69M/R101A/R150A/R92S/S147E/T165A/V146A/W99T/Y152F); test: SPR of analyte mLcn2 flowed over immobilized Peptide16; format: binding
T1 construct: made in house; host or cells: bacteria
Description: FIG. 14A: mLCN2 vs. Pep16. Surface plasmon resonance of analyte mLcn2 flowed over ligand Peptide16 immobilized to a CM5 chip. Representative results are shown from three independent experiments.
as §1

mLcn2-Fc = test: SPR of analyte mLcn2-Fc flowed over immobilized Peptide12; format: binding; conditions: peptide immobilized on CM5 chip, three independent experiments
Description: FIG. 14B: mLCN2-Fc vs. Pep12. Surface plasmon resonance of analyte mLcn2-Fc flowed over ligand Peptide12 immobilized to a CM5 chip. Representative results are shown from three independent experiments.
as §1

| Compound | phage binding to immobilized Lcn2-Fc by ELISA (Lcn2-Fc) | other results |
| --- | --- | --- |
| ipilimumab | – | patients affected by enterocolitis [1]: approximately 20% |
| CWPEWDLWC [Peptide 4] | increased binding to immobilized Lcn2-Fc | – |
| CYGLGFNFC [Peptide 1] | increased binding to immobilized Lcn2-Fc | – |
| CFTPWPEAC [Peptide 3] | increased binding to immobilized Lcn2-Fc | – |
| CSCC[C@@H]1NC(=O)[C@H](Cc2ccccc2)NC(=O)[C@@H]2CCCN2C(=O)[C@H](CC(C)C)NC(=O)[C@@H]2CCCN2C(=O)[C@H](CO)NC(=O)[C@H](Cc2c[nH]c3ccccc23)NC(=O)[C@@H](N)CSSC[C@@H](C(=O)O)NC1=O [Peptide 16, CWSPLPFMC] (H-CWSPLPFMC-OH; disulfide 1-9) | – | Kd (mLcn2): 4.6 µM |
| CRIDERLQC [Peptide 2] | increased binding to immobilized Lcn2-Fc | – |
| CSVLPPFMC [Peptide 12] | increased binding to immobilized Lcn2-Fc | Kd (mLcn2-Fc): 3.4 µM |
| CYLELMHSC [Peptide 8] | increased binding to immobilized Lcn2-Fc | – |
| CEKWFRFMC [Peptide 6] | increased binding to immobilized Lcn2-Fc | – |
